Laboratory results published in PMC12455572, “Amphipathic Proline-Rich Cell Penetrating Peptides for Targeting Mitochondria” (ACS Chemical Biology, 2025).
Where a SMILES comes first, the peptide text is derived from it. [ ]: non-standard residue; d: D form. The star is where a group is joined. 5FAM = O=C1OC2(c3ccc(O)cc3Oc3cc(O)ccc32)c2ccc(C(=O)*)cc21; Pro(cis-4-guanidino) = NC(N)=N[C@@H]1CN[C@H](C(=O)O)C1; Cha = N[C@@H](CC1CCCCC1)C(=O)O; Ahx = NCCCCCC(=O)O

Key:
[1] = RP-HPLC retention time as estimate of hydrophobicity (C4 column, 30 to 55% B); assay type: physicochemical; conditions: RP-HPLC used as estimate of hydrophobicity, A H2O/MeCN/TFA (1000/10/1), gradient 30 to 55% B, 20 min, CF-Ahx-labelled peptides
Description: 2 (A) General structure of amphipathic peptides, CF-Ahx-[XZZ]3-NH2; CF = 5(6)-Carboxyfluorescein, Ahx = aminohexanoic acid. (B) CD spectra of the peptides, recorded at 50 μM in H2O, pH 5.7. For a comparison with a spectrum of a Gup oligomer, see Figure S2. (C) Retention time of the peptides measured by RP-HPLC on a C4 column with a mobile phase from 30 to 55% of MeCN in H2O/MeCN/TFA (1000/10/1). (D) Representative confocal microscopic images of live MCF-7 cells, incubated for 1 h at 37 °C with peptide solutions at a concentration of 10 μM in DMEM + 1% FBS (left, in green). Mitochondria were stained with Deep Red MitoTracker (middle, in red) and merged images (right, orange/yellow indicating colocalization) with Hoechst33342 stain (blue) for the nucleus. TEXT PRINTED IN THE PICTURE: (C) (ValZZ)3: tr(min): 1.8 | (C) (PheZZ)3: tr(min): 2.9 | (C) (TrpZZ)3: tr(min): 3.2 | (C) (ChaZZ)3: tr(min): 5.4 DOUBTS OF THE COPYIST ABOUT THIS PICTURE: Panel C, column head: the small lowered letter after t is read as r (tr), not certain
The Gup residues should preorganize the peptides into a PPII helix with one hydrophobic and two cationic edges along the PPII helical peptide. Indeed, circular dichroism (CD) spectra of the peptides display the characteristic minimum and maximum at ∼206 nm and ∼224 nm, respectively, of a PPII helix (Figure B). The spectra imply that the non-proline residues in every third position are tolerated within the helical structure. We used reverse phase high performance liquid chromatography (RP-HPLC) for an estimate of the hydrophobicity of the peptides. On a C4 column using two mobile phases A (H2O/MeCN/TFA (1000/10/1)) and B (MeCN) with a gradient of 30% to 55% B, all peptides eluted over 20 min but with different retention times (Figure C). The Cha-containing peptide had the longest retention time, indicating the highest hydrophobicity within the series, followed by the Trp-, Phe-, and Val-peptides.

MCF-7 cells = assay: Colocalization of peptide with MitoTracker (Manders' coefficients from confocal images); assay type: cell-based; conditions: MCF-7, after 24 h rest versus after 1 h incubation, Figure S7B; 10 µM for (ChaZZ)3, otherwise concentration not stated
Description: MCF-7 cells were seeded in a 8-μwell Ibidi plate at 25′000 cells/well in DMEM (100 μL, 10% FCS) and allowed to adhere overnight. The medium was removed, the cells were washed with PBS (200 μL, 1x) and incubated with the peptide solution at 20 μM, 10 μM, 5 μM or 2.5 μM in DMEM (200 μL, 1% FCS) for 1 h at 37 °C. The medium was removed, and the cells were washed with PBS (200 μL, 2x). MitoTracker Deep Red was distributed at 20 nM in DMEM (200 μL, 1% FBS) and the cells were incubated at 37 °C for 25 min. The medium was removed, and the cells were washed with PBS (200 μL, 2x). Hoechst333342 was distributed at 2 μM in DMEM (200 μL, 1% FBS) and the cells were incubated at 37 °C for 5 min. The cells were washed with PBS (200 μL, 2x), and FluoroBrite medium (200 μL) was added. The live cells were monitored on the confocal microscope at 37 °C, 5% CO2.
For the cells subjected to a 24 h rest period, the FluoroBrite medium was exchanged for DMEM (200 μL, 10% FBS) after the initial imaging, and the cells were kept in this medium for 24 h. The culture medium was then exchanged for FluoroBrite DMEM, and the cells were imaged again.
Fluorescence images of cells were collected using a Nikon Eclipse T1 (inverse) microscope equipped with a Yokogawa Confocal Scanner Unit CSU-W1-T2, containing a spinning disk (50 µm). The microscope is equipped with two EMCCD Andor iXon Ultra cameras. Emission in the blue channel (405 nm) was filtered with a 450/50 bandpass filter, emission in the green channel (488 nm) was filtered with a 525/50 bandpass, and the emission in the red channel (641 nm) was filtered with a 708/75 bandpass filter. Fluorescence images were obtained using an oil-immersion objective with a magnification of 100 × 1.4 CFI Plan Apo Oil.
Each experiment was repeated at least three times. The images acquired were adjusted using ImageJ2 software. Correlation coefficients were determined on entire images using JaCOP plugin.1 […]
MCF-7 cells were seeded in a 8-µwell Ibidi plate at 25’000 cells/well in DMEM (100 µL, 10% FCS) and allowed to adhere overnight. The medium was removed. The cells were washed with PBS (200 µL, 1x) and incubated with the peptide solution at 20 µM, 10 µM, 5 µM, or 2.5 µM in DMEM (200 µL, 1% FCS) for 1 h at 37 °C. The medium was removed, and the cells were washed with PBS (200 µL, 2x).
For imaging of mitochondria, MitoTracker Deep Red was added as described in the manuscript. […]
PBS (200 µL, 2x). For imaging of the nucleus, Hoechst333342 was added at (200 µL, 2 µM in DMEM, 1% FBS) followed by incubation of the cells at 37 °C for 5 min. The cells were washed with PBS (200 µL, 2x), and FluoroBrite medium (200 µL) was added. The live cells were monitored on the confocal microscope […]
MCF-7 cells were seeded in a 96-well plate at 7’500 cells/well in cell culture medium (200 µL, 10% FCS), and allowed to adhere overnight. The medium was removed, the cells were washed with PBS (100 µL, 1x) and incubated with the peptide solution at 20 µM, 10 µM, 5 µM, or 2.5 µM in DMEM (200 µL, 1% FCS) for 1 h at 37 °C. The medium was removed, and the cells were washed with PBS (100 µL, 1x). The MTT solution in DMEM (110 µL, 1.2 mM, 1% FBS) was added. The cells were incubated for 3 h at 37 °C. The supernatant was carefully removed, and DMSO (100 µL) was added. The plate was gently shaken for 30 min and the absorption of formazan solution at 570 nm was measured on the plate reader. […]

Molecule	Retention time tr [1]	Fold change of MitoTracker overlap with the peptide (M2) after 24 h rest (MCF-7 cells)	Fold change of peptide overlap with MitoTracker (M1) after 24 h rest (MCF-7 cells)
N=C(N)N[C@H]1C[C@@H](C(=O)N2C[C@@H](NC(=N)N)C[C@H]2C(=O)N[C@@H](CC2CCCCC2)C(=O)N2C[C@@H](NC(=N)N)C[C@H]2C(=O)N2C[C@@H](NC(=N)N)C[C@H]2C(=O)N[C@@H](CC2CCCCC2)C(=O)N2C[C@@H](NC(=N)N)C[C@H]2C(=O)N2C[C@@H](NC(=N)N)C[C@H]2C(=O)N[C@@H](CC2CCCCC2)C(N)=O)N(C(=O)[C@H](CC2CCCCC2)NC(=O)CCCCCNC(=O)c2ccc3c(c2)C(=O)OC32c3ccc(O)cc3Oc3cc(O)ccc32)C1 [(ChaZZ)3-Cha, CF-Ahx-(ChaZZ)3-Cha-NH2] ({5FAM-Ahx}-[Cha][Pro(cis-4-guanidino)][Pro(cis-4-guanidino)][Cha][Pro(cis-4-guanidino)][Pro(cis-4-guanidino)][Cha][Pro(cis-4-guanidino)][Pro(cis-4-guanidino)][Cha]-NH2)	8.5 min	up to 3.6 fold	more than 1.5 fold
CF-Ahx-(ChaZZ)2-Cha-NH2	8.1 min	0.4 fold	1.3 fold
CF-Ahx-(ChaZZ)3-NH2			> 2 fold
